Laboratory results as given in US20180066070A1, “ACETYLATED PCSK9” (UNIVERSITAT ZURICH, priority 2015, published 2018).
One block for each molecule: values may come before it.

Experiments:
SIRT1 [1] = molecular target: T1, SIRT1 (Homo sapiens, UniProt Q96EB6); test: Fluorogenic peptide deacetylation assay; assay type: biochemical; conditions: increasing concentrations of SRT1720 (1 μM, 10 μM, 100 μM, 1 mM), 1 μg SIRT1, acetyl-Lys421 PCSK9-AMC peptide, compared to negative and positive controls (FIG. 4)
T1 sequence (Q96EB6 1-747): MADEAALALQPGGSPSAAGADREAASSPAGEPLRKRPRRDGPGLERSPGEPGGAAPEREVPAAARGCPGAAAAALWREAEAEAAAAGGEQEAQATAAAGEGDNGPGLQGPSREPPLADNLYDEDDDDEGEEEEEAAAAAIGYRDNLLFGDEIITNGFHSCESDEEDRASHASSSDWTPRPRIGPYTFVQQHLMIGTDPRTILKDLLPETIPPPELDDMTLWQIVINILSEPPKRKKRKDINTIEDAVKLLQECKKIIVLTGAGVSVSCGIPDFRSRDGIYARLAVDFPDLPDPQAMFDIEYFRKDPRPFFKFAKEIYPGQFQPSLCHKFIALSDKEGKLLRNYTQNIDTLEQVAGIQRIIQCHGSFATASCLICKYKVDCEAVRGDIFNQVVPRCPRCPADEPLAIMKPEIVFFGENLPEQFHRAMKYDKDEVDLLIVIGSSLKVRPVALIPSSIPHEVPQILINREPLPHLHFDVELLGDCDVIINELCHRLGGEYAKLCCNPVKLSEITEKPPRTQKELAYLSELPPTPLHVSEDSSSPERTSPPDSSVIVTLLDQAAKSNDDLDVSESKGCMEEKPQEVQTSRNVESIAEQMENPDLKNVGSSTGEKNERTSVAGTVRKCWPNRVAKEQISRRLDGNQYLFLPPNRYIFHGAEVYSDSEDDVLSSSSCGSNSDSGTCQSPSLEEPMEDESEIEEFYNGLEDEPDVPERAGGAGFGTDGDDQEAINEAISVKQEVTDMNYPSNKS
Method: To analyse the deacetylation activity of SIRT1 on PCSK9, an acetylated PCSK9 peptide was designed with acetylated lysine 421 (Lys421)-tagged to an AMC fluorophore. The acetyl-PCSK9-AMC peptide was dissolved in DMSO and incubated with 1 μg SIRT1 with 1 μM, 10 μM, 100 μM and 1 mM SIRT1 activator SRT1720 in the deacetylation assay buffer containing 50 mM Tris-HCl [pH8.0], 1 mM MgCl2, 125 mM NaCl, 2.5 mM potassium chloride and 500 μM NAD+. Reactions were allowed to proceed for an incubation period of 1 hr at 37° C. Prior to quenching the reaction, 2 mM nicotinamide was added to 1× developing buffer (BML-KI176-1250, Enzo Lifesciences) in the deacetylation assay buffer (50 mM Tris-HCl [pH8.0], 1 mM MgCl2, 125 mM NaCl, 2.5 mM potassium chloride). At each time point, 50 μL of the reaction was removed and mixed with 50 μL of the developer solution. The quenched samples were kept at 37° C. for 45 min prior to fluorescence reading. The release of the fluorescent AMC was measured using a Tecan M200 PRO fluorometric plate reader with an excitation 360 nm and detection of emitted light in the range of […]. All reactions were normalized to control reactions in the absence of β-NAD (Ffinal=F+NAD−F-NAD).

SIRT1 [2] = molecular target: T2, SIRT1 (Mus musculus, UniProt Q923E4); conditions: ApoE-/- mice; cited from earlier work
T2 construct: host or cells: ApoE-/- mice (endogenous protein of the animal)
T2 sequence (Q923E4 1-737): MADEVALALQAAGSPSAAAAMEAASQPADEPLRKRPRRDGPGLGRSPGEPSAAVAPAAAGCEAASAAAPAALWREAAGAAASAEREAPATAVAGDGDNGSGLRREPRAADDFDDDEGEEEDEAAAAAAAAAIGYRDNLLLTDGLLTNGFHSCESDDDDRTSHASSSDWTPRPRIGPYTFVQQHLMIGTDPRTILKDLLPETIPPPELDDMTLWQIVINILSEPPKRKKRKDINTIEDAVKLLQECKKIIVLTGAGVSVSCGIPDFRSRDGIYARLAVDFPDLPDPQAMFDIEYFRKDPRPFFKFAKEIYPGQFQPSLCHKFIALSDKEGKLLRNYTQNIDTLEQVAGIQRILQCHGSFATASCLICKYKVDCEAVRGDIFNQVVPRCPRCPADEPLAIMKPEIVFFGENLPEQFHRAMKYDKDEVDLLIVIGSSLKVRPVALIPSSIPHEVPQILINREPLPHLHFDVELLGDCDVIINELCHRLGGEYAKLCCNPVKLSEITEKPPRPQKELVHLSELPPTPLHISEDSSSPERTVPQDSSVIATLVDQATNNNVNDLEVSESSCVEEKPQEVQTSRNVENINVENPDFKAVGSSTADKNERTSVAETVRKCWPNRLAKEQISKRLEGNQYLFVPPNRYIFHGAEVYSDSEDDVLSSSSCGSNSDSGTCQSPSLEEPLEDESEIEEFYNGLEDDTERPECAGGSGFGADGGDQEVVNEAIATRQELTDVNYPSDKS

RAW 264.7 macrophages = test: Activity of acetylated vs deacetylated recombinant PCSK9 on RAW 264.7 macrophages (western blot for LDLR, PCSK9); assay type: cell-based, murine; conditions: recombinant PCSK9 pretreated with pCAF and acetyl-CoA vs SIRT1 and NAD+, 15 mins (FIG. 7)
Method: Recombinant PCSK9 pretreated with SIRT1 and NAD+ or pCAF and acetyl-CoA were added on RAW 264.7 macrophages for 15 mins and lysed, separated by SDS-PAGE and blotted for LDLR, PCSK9 and b-actin. Representative bar graphs of LDLR, PCSK9 normalized to b-actin and PCSK9 expression normalized to LDLR expression.
Human HepG2 hepatocytes (American Type Culture Collection, Manassas, Va.) and murine RAW 264.7 cells (Mouse leukaemic monocyte macrophage cell line) were cultured in DMEM containing 10% fetal bovine serum (v/v). AML12 mouse hepatoma cells were cultured in a 1:1 (v/v) mixture of DMEM and Ham's F12 medium supplemented with insulin (5 μg ml-1), transferrin (5 μg ml-1), selenium (5 ng ml-1), dexamethasone (40 ng ml-1), and 10% fetal bovine serum (v/v). Where indicated, AML12 cells were exposed to 10 μM SRT3025 in 1% DMSO (v/v). The cells were maintained in a humidified atmosphere with 5% CO2 at 37° C.
Substrate protein, PCSK9 was incubated with 2 μg of recombinant pCAF and 50 μM acetyl-CoA in 20 μL of acetylation buffer (250 mM Tris-HCl [pH9.0], 20 mM MgCl2, 250 mM NaCl, 2.5 mM DTT). Reaction mixtures were incubated at 37° C. for 1 hour. Reaction was stopped by freezing. […] The reactions were analyzed by western blotting using anti-PCSK9 antibody (Abcam) to verify loading and anti-acetyl lysine (Cell signalling) to verify acetylation.

fluorescence caused by deacetylation of fluorogenic PCSK9 peptide (SIRT1 [1]): increase in fluorescence
Molecule: O=C(Nc1ccccc1-c1cn2c(CN3CCNCC3)csc2n1)c1cnc2ccccc2n1 [SRT1720]

Molecule: COCCCc1sc(-c2ccccc2)nc1C(=O)Nc1ccccc1-c1nc2cc(CN3CCCC3)cnc2s1 [SRT3025]
LDL-cholesterol (SIRT1 [2]): reducing LDL-cholesterol
PCSK9 secretion (SIRT1 [2]): reduction in PCSK9 secretion
atherosclerosis (SIRT1 [2]): protects against atherosclerosis

Molecule: acetyl-PCSK9: Recombinant PCSK9 pretreated with pCAF and acetyl-CoA
activity of PCSK9 (LDLR, PCSK9 expression normalized to b-actin) (RAW 264.7 macrophages): more active
